Patent US7427395B2, “Chemotherapeutic agent-incorporated pharmaceutical preparation” (Genomidea Inc., priority 2002, dated 2008)
Where two headings read alike, the source gives them in different places.

Columns and labels:
[1] = system: Mouse colon cancer-derived CT-26 cells; experiment: In vivo experiment (2): tumor volume and tumor weight of transplanted CT-26, HVJ-E/BLM into the tumor with or without intraperitoneal CDDP (Example 3); set-up: species or system BALB/cAnNCrj male mice
[2] = system: mouse colon carcinoma cell CT26; settings: 30 min at 37° C., counted 2 days later
Procedure: A microtube containing the sample was centrifuged at 15,000 rpm for 15 minutes at 4° C. to give the HVJ-E vector as a precipitate, and the supernatant was removed. […] Further, 2 μl of 3% Triton-X100 was added thereto to prepare a sample containing Triton-X100 at a final concentration of 0.1%, which was then left on ice for 15 minutes. Thereafter, 500 μl PBS solution was added thereto. The microtube was centrifuged at 15,000 rpm for 15 minutes at 4° C., and the supernatant was removed without removing the precipitate, and 500 μl PBS solution was added again to the precipitate. The microtube was centrifuged again at 15,000 rpm for 15 minutes at 4° C., and the supernatant was removed without removing the precipitate.
The resulting precipitate was suspended in 180 μl PBS, and the resulting sample solution was pipetted in a volume of 30 μl/microtube into 6 microtubes. Five microlitters of protamine sulfate solution prepared at 5 mg/ml and 500 μl DMEM solution (Dulbecco's modified Eagle medium) were added to each tube.
The above sample solution was added to mouse colon carcinoma cell CT26 prepared on a 6-well plate. The plate was kept for 30 minutes in an incubator at 37° C., and then the medium was exchanged with 500 μl medium (DMEM containing 10% FCS). The cells were incubated for 2 days in a CO2 incubator at 37° C. Two days later, the number of viable cells was counted to evaluate the anticancer effect.

colon carcinoma CT26 = experiment: In vivo experiment: tumor volume of subcutaneously transplanted CT26 after administration into the tumor (Example 2); settings: for average tumor volume (mean): 100 μl/mouse into the tumor, n=8
Procedure: A microtube containing the sample was centrifuged at 15,000 rpm for 15 minutes at 4° C. to give the HVJ-E vector as a precipitate, and the supernatant was removed. […] Further, 2 μl of 3% Triton-X100 was added thereto to the final concentration of 0.1%, which was then kept on ice for 15 minutes. Thereafter, 500 μl PBS solution was added thereto. The microtube was centrifuged at 15,000 rpm for 15 minutes at 4° C., and the supernatant was removed without removing the precipitate, and 500 μl PBS solution was added thereto. The microtube was centrifuged again at 15,000 rpm for 15 minutes at 4° C., and the supernatant was removed without removing the precipitate. The resulting precipitate was suspended in 120 μl PBS.
In this animal experiment, BALB/c mice (8-week-old, male) were used. […] The CT-26 cells to be transplanted were suspended in DMEM medium containing 10% FCS, and 5×10^6 cells (100 μl PBS/mouse) were transplanted in the back. The mice were anesthetized by intraperitoneal administration of 500 μl of 20-fold-diluted Nembutal injection. The volume of the transplanted cancer cells was estimated by calculation of major axis×minor axis×minor axis/2. When the diameter of the tumor reached 7 to 8 mm one week after transplantation, 100 μl of the sample prepared above was administered into the site of the cancer in the mouse. On Days 7, 10, 13, 16 and 19 (that is, 3-day intervals) after transplantation of the cancer cells, the tumor diameter was measured to evaluate the anticancer effect. The number of animals was 8 in each group.

[3] = Day 16 (9 days after sample administration)

Compound | tumor weight on Day 21 after administration ([1]; CDDP 0.2 mg/body i.p. once, alone or with 13 mg/tumor HVJ-E/BLM into the tumor) | average tumor volume on Day 21 ([1]; CDDP 0.2 mg/body i.p. once, alone or with 13 mg/tumor HVJ-E/BLM into the tumor, 10 mice) | tumor weight on Day 21 after administration ([1]; CDDP 0.4 mg/body i.p. once, alone or with HVJ-E into the tumor) | average tumor volume on Day 21 ([1]; CDDP 0.4 mg/body i.p. once, 3 mice) | Number of viable cells (mean) ([2]; 1/50 bleomycin group: bleomycin 50 μg/DMEM 500 μl/well) | Number of viable cells (mean) ([2]; 1/500 bleomycin group: bleomycin 5 μg/DMEM 500 μl/well) | Number of viable cells (mean) ([2]; 1/500 bleomycin group: bleomycin 5 μg/DMEM 500 μl/well, listed as bleomycin) | Number of viable cells (mean) ([2]; 1/5,000 bleomycin group: bleomycin 500 ng/DMEM 500 μl/well) | Number of viable cells (mean) ([2]; 1/5,000 bleomycin group: bleomycin 500 ng/DMEM 500 μl/well, listed as bleomycin) | average tumor volume (mean) (colon carcinoma CT26; Day 7 (time of sample administration)) | average tumor volume (mean) (colon carcinoma CT26; Day 10 (Day 3 after sample administration)) | average tumor volume (mean) (colon carcinoma CT26; Day 13) | tumor volume shrinkage effect relative to the PBS administration group (0%) (colon carcinoma CT26; [3]) | average tumor volume (mean) (colon carcinoma CT26; [3]) | average tumor volume (mean) (colon carcinoma CT26; Day 16 (9 days after sample administration), listed as BLM) | antitumor effect in vivo (in words) (colon carcinoma CT26; direct administration into the solid tumor)
[NH2][Pt]([NH2])([Cl])[Cl] [CDDP, cisplatin] | 1619.79 mg | 1720.14 mm^3 | 1164.13 mg | 1367.62 mm^3 | – | – | – | – | – | – | – | – | – | – | – | –
bleomycin | – | – | – | – | 81800 | 164600 | 164,600 | 196800 | 196,800 | 158.4 mm^3 | 413.70 mm^3 | 754.7 mm^3 | 3.4% | 1234.6 mm^3 | 1,235 mm^3 | Antitumor effect was hardly recognized
